{
  "source": "patent US20140221490A1",
  "about": "“METHODS OF TREATING PAIN” (Hospira, Inc., priority 2011, published 2014)",
  "assay_type_in_all_cases": "in vivo, human",
  "key": {"[1]": {"tested_on": "patients after orthopedic surgery", "test": "Orthopedic surgery trial: safety (adverse events)", "experimental": "The diclofenac formulation was Dyloject™. […] Adverse events (adverse effects) were recorded between surgery and randomization, not just after baseline, in order to distinguish treatment-emergent adverse events.\nThose who remained at the site longer assessed their pain every 3 hours until discharged. […] Adverse events (AEs) were recorded between surgery and randomization, not just after baseline, in order to distinguish treatment-emergent AEs."}, "[2]": {"tested_on": "acute moderate to severe pain after abdominal or pelvic surgery", "test": "Multiple-dose randomized double-blind active- and placebo-controlled trial after abdominal or pelvic surgery: efficacy (SPID, pain relief, rescue morphine, patient global evaluation)", "experimental": "A 331 multicenter, multiple-dose, multiple-day, randomized, double-blind, parallel-group study was conducted on patients who had undergone abdominal or pelvic surgery. Patients were randomly assigned to 18.75 mg of diclofenac, 37.5 mg of diclofenac, 30 mg ketorolac, or placebo (1:1:1:1 ratio). The diclofenac formulation was Dyloject™. The patients selected for the study had moderate to severe pain within 6 hours postoperatively, defined as pain intensity of at least 50 mm on a 0-100 VAS.\nAt 16 U.S. sites, adults 18-65 years old were screened if they were scheduled for abdominal or pelvic surgery within 2 weeks. Key inclusion criteria were moderate-to-severe postoperative pain, defined as intensity≧50 mm on a 0-100 mm visual analog scale (VAS) within 6 hours after surgery, and weight>50 kg. Exclusion criteria were applied to the preoperative, intraoperative, and postoperative periods. Key preoperative exclusion criteria were a history of chronic disease or severe asthma, a recent (≦6 months) cardiovascular event or clinically-significant abnormal electrocardiogram (ECG) at screening, consumption of aspirin (except <325 mg/day for antiplatelet cardiac protection), opioids, other NSAIDs, other common analgesics, major and minor tranquilizers, or antihistamines≦24 hours before study drug initiation (except if administered during surgery), consumption of a monoamine oxidase inhibitor, tryptophan, carbamazepine, or valproate≦2 weeks before baseline, any clinically-significant laboratory abnormality, and previous or present peptic ulceration, gastrointestinal (GI) bleeding, or any bleeding diathesis. In addition, long-acting NSAIDs or COX-2 inhibitors were to be discontinued 3 days before surgery. Subjects were also excluded in the event of a known allergy to diclofenac, NSAIDs, morphine, anesthetics, or any excipient of the study preparation, receipt of any other investigational medication within 3 months prior to administration of the study drug, known or suspected alcohol or drug abuse, and unwillingness to remain in the clinical research center for 2 nights or return within 5-9 days for a safety follow-up visit. Female subjects with a positive pregnancy test within 24 hours of surgery or who were lactating at screening were also excluded. Intraoperative exclusion criteria were subcostal incision during surgery and concomitant use of NSAIDs or acetaminophen (other intraoperative medications were not restricted). Subjects with abnormal postoperative baseline ECG were excluded from study participation. In addition, patient-controlled analgesia (PCA) was not permitted before or during study drug dosing. Nitrous oxide and very short-acting barbiturates or benzodiazepines were allowed, provided that there was a ≧1.5-hour washout period before study drug administration, to avoid residual effects on pain intensity assessments. […] Postoperative regional anesthesia was not allowed.\nThis was a multicenter, multiple-dose, multiple-day, randomized, double-blind, active- and placebo-controlled, parallel-group phase 3 study. […] Assignments were made according to a computer-generated random-number code, and clinical staff and patients were blinded to study drug assignment. The first dose of study medication (1 mL IV bolus) was received by patients in all treatment arms within this first 6-hour period (Table 4).\nAdministration of the first dose of study drug was taken as time 0, and all subsequent dosing and evaluation time points were in relation to time of first study drug dose. Subsequent injections were received every 6 hours until discharge or until patient withdrawal/discontinuation from the study, due either to an adverse event (AE), inadequate pain control, noncompliance with the study protocol, or at the investigator's discretion. […]"}, "[3]": {"tested_on": "patients after abdominal or pelvic surgery", "test": "Abdominal or pelvic surgery trial: safety (adverse events, thrombophlebitis scale)", "experimental": "Patients returned for a safety follow-up 5-9 days after baseline, and received a follow-up telephone call 30 days post-baseline. Safety assessments included physical examinations, laboratory testing, vital signs, 12-lead ECG, and evaluation of thrombophlebitis at the site of study drug injection using a 6-point scale (Table 5 and FIG. 6). AEs were recorded throughout the study.\nThe proportion of patients reporting ≧30% reduction from baseline in pain intensity was analyzed with the Cochran-Mantel-Haenszel test with center as a stratification variable. Time to meaningful (≧30%) reduction in pain intensity and time to administration of rescue medication were analyzed with Kaplan-Meier survival analysis techniques. Descriptive statistics were used for AEs, laboratory test results, vital signs, thrombophlebitis, and ECG results. Logistic regression was used to estimate the relative risk of cardiovascular events."}, "[4]": {"conditions": "diclofenac n = 145, ketorolac n = 60"}},
  "note": "Where “and” joins values, the source holds several entries; their conditions need not be identical. Equal values may be shown once.",
  "data": [
    {"smiles": "O=C(c1ccccc1)c1ccc2n1CCC2C(=O)O", "note": "(centres unmarked) [Ketorolac, ketorolac tromethamine]", "values": [
      {"measurement": "Acute Renal Failure/Renal Insufficiency", "setting": "[1]; [4]", "value": "0 n (%)"},
      {"measurement": "Acute Tubular Necrosis", "setting": "[1]; [4]", "value": "0 n (%)"},
      {"measurement": "Anemia", "setting": "[1]; [4]", "value": "9 (15.0%) n (%)"},
      {"measurement": "Blood creatine phosphokinase (CPK) increase", "setting": "[1]; [4]", "value": "8 (13.3%) n (%)"},
      {"measurement": "Constipation", "setting": "[1]; [4]", "value": "6 (10.0%) n (%)"},
      {"measurement": "Contusion", "setting": "[1]; [4]", "value": "2 (3.3%) n (%)"},
      {"measurement": "Dizziness", "setting": "[1]; [4]", "value": "5 (8.3%) n (%)"},
      {"measurement": "Dysuria (burning, difficulty urinating)", "setting": "[1]; [4]", "value": "1 (1.7%) n (%)"},
      {"measurement": "Epistaxis", "setting": "[1]; [4]", "value": "0 n (%)"},
      {"measurement": "Fever/increase body temp.", "setting": "[1]; [4]", "value": "5 (8.3%) n (%)"},
      {"measurement": "Nausea", "setting": "[1]; [4]", "value": "18 (30.0%) n (%)"},
      {"measurement": "Total Bleeding related adverse events", "setting": "[1]; [4]", "value": "13 (21.7%) n (%)"},
      {"measurement": "Total GI-Related Adverse Events", "setting": "[1]; [4]", "value": "24 (40.0%) n (%)"},
      {"measurement": "Total Renal-Related Adverse Events", "setting": "[1]; [4]", "value": "1 (1.7%) n (%)"},
      {"measurement": "Urinary Retention", "setting": "[1]; [4]", "value": "0 n (%)"},
      {"measurement": "Vomiting", "setting": "[1]; [4]", "value": "6 (10.0%) n (%)"},
      {"measurement": "incidence of bleeding-related adverse effects", "setting": "[1]; in vivo", "value": "23% and 22%"},
      {"measurement": "serious cardiovascular event: congestive heart failure", "setting": "[1]; one of 60 patients, not considered treatment-related", "value": 1.7, "unit": "%"},
      {"measurement": "Cumulative Amount of Rescue Medication, Mean (SD)", "setting": "[2]; 0 to 24 hours, 30 mg (N = 82)", "value": "6.7 (7.74) mg"},
      {"measurement": "Opioid sparing vs. placebo", "setting": "[2]; 0 to 24 hours, 30 mg (N = 82)", "value": 40, "unit": "%"},
      {"measurement": "Cumulative Amount of Rescue Medication, Mean (SD)", "setting": "[2]; 0 to 48 hours, 30 mg (N = 82)", "value": "8.5 (10.00) mg"},
      {"measurement": "Opioid sparing vs. placebo", "setting": "[2]; 0 to 48 hours, 30 mg (N = 82)", "value": 46, "unit": "%"},
      {"measurement": "Cumulative Amount of Rescue Medication, Mean (SD)", "setting": "[2]; 0 to 72 hours, 30 mg (N = 82)", "value": "8.5 (10.04) mg"},
      {"measurement": "Opioid sparing vs. placebo", "setting": "[2]; 0 to 72 hours, 30 mg (N = 82)", "value": 47, "unit": "%"},
      {"measurement": "Cumulative Amount of Rescue Medication, Mean (SD)", "setting": "[2]; 0 to 72 hours, 30 mg (N = 82), listed as ketorolac", "value": 8.5, "unit": "mg"},
      {"measurement": "Sum of the Pain Intensity Differences Over 0-48 Hours, Mean", "setting": "[2]; 30 mg (N = 82)", "value": 1583.2, "unit": "mm·hours"},
      {"measurement": "patients with at least a 30% reduction in pain intensity", "setting": "[2]; at 45 minutes after study drug initiation, 30 mg", "value": 57, "unit": "%"},
      {"measurement": "patients with ≧30% reduction in pain intensity", "setting": "[2]; during the first 6-hour dosing period, 30 mg", "value": 76.8, "unit": "%"},
      {"measurement": "incidence of bleeding-related AEs", "setting": "[3]; 30 mg", "value": 6.1, "unit": "%"},
      {"measurement": "incidence of cardiovascular AEs", "setting": "[3]; 30 mg", "value": 6.1, "unit": "%"},
      {"measurement": "incidence of treatment-related AEs", "setting": "[3]; 30 mg", "value": 23.2, "unit": "%"},
      {"measurement": "Abdominal Hematoma", "setting": "[3]; 30 mg (n = 82)", "value": "1 (1.2%) n (%)"},
      {"measurement": "Bleeding-related AE: Anemia", "setting": "[3]; 30 mg (n = 82)", "value": "2 (2.4%) n (%)"},
      {"measurement": "Blood Creatine phosphokinase (CPK) increased", "setting": "[3]; 30 mg (n = 82)", "value": "12 (14.6%) n (%)"},
      {"measurement": "Constipation", "setting": "[3]; 30 mg (n = 82)", "value": "8 (9.8%) n (%)"},
      {"measurement": "Diarrhea", "setting": "[3]; 30 mg (n = 82)", "value": "6 (7.3%) n (%)"},
      {"measurement": "Flatulence", "setting": "[3]; 30 mg (n = 82)", "value": "22 (26.8%) n (%)"},
      {"measurement": "Headache", "setting": "[3]; 30 mg (n = 82)", "value": "14 (17.1%) n (%)"},
      {"measurement": "Hematoma", "setting": "[3]; 30 mg (n = 82)", "value": "0 (0.0%) n (%)"},
      {"measurement": "Incision site complication", "setting": "[3]; 30 mg (n = 82)", "value": "0 (0.0%) n (%)"},
      {"measurement": "Injection site pain, irritation", "setting": "[3]; 30 mg (n = 82)", "value": "17 (20.7%) n (%)"},
      {"measurement": "Insomnia", "setting": "[3]; 30 mg (n = 82)", "value": "7 (8.5%) n (%)"},
      {"measurement": "Nausea", "setting": "[3]; 30 mg (n = 82)", "value": "22 (26.8%) n (%)"},
      {"measurement": "Number of patients experiencing ≧1 AE", "setting": "[3]; 30 mg (n = 82)", "value": "72 (87.8%) n (%)"},
      {"measurement": "Pruritus", "setting": "[3]; 30 mg (n = 82)", "value": "3 (3.7%) n (%)"},
      {"measurement": "Pyrexia", "setting": "[3]; 30 mg (n = 82)", "value": "9 (11.0%) n (%)"},
      {"measurement": "Rectal Hemorrhage", "setting": "[3]; 30 mg (n = 82)", "value": "1 (1.2%) n (%)"},
      {"measurement": "Tachycardia", "setting": "[3]; 30 mg (n = 82)", "value": "4 (4.9%) n (%)"},
      {"measurement": "Thrombophlebitis", "setting": "[3]; 30 mg (n = 82)", "value": "6 (7.3%) n (%)"},
      {"measurement": "Total patients with a Bleeding-Related AE", "setting": "[3]; 30 mg (n = 82)", "value": "5 (6.1%) n (%)"},
      {"measurement": "Vaginal Hemorrhage", "setting": "[3]; 30 mg (n = 82)", "value": "0 (0.0%) n (%)"},
      {"measurement": "Vomiting", "setting": "[3]; 30 mg (n = 82)", "value": "7 (8.5%) n (%)"},
      {"measurement": "Wound complication", "setting": "[3]; 30 mg (n = 82)", "value": "1 (1.2%) n (%)"},
      {"measurement": "Wound dehiscence", "setting": "[3]; 30 mg (n = 82)", "value": "1 (1.2%) n (%)"},
      {"measurement": "Total Patients on Concomitant Anticoagulants with a Bleeding-Related AE", "setting": "[3]; 30 mg, 49 on anticoagulants", "value": "3 (6.1%) n (%)"},
      {"measurement": "subjects reporting ≧1 bleeding-related AE among subjects receiving anticoagulants", "setting": "[3]; ketorolac group (3/49), post hoc analysis", "value": 6.1, "unit": "%"}
    ]}
  ]
}
